# Test results from ChEMBL document CHEMBL3414515, “Design of a potent antibiotic peptide based on the active region of human defensin 5” (J Med Chem, 2015).
# Activity calls are given as the source filed them. The calls are words filed in the database; no cut-off is given here. Positions of bridges follow the written chain, without caps; N, C: chain ends. Residues, ends and D or L forms follow the SMILES beside them.
# Legend:
# [1] = tested on: Staphylococcus aureus; assay: Antibacterial activity against Staphylococcus aureus ATCC 25923 assessed as reduction in bacterial survival rate; type: functional; conditions: for LC50: Staphylococcus aureus, ATCC 25923, read-out: LD50 (the source's name)
# [2] = tested on: Escherichia coli; assay: Antibacterial activity against Escherichia coli ATCC 25922 assessed as reduction in bacterial survival rate; type: functional; conditions: for LC50: Escherichia coli, ATCC 25922, read-out: LD50 (the source's name)
# [3] = tested on: Staphylococcus aureus; assay: Antibacterial activity against Staphylococcus aureus ATCC 25923 assessed as reduction in bacterial survival rate at 25 ug/ml in presence of 10% mouse serum; type: functional, organism-based
# [4] = tested on: Escherichia coli; assay: Antibacterial activity against Escherichia coli ATCC 25922 assessed as reduction in bacterial survival rate 12.5 ug/ml in presence of 150 mM NaCl; type: functional, organism-based
# [5] = Stability in presence of 400 U/L trypsin assessed as compound degradation at 100 ug/ml after 4 to 12 hrs by HPLC and LC-MS method; type: physicochemical; conditions: isolated protein
# [6] = Induction of hemolysis in mouse erythrocytes up to 100 ug/ml incubated at 37 degC for 15 mins; type: cell-based, Erythrocyte; conditions: read-out: Activity
# [7] = Binding affinity to Rd mutant containing Escherichia coli F583 lipid A assessed as equilibrium dissociation constant in presence of 75 mM NaCl by bilayer interferometry
# [8] = tested on: Escherichia coli; assay: Antibacterial activity against Escherichia coli ATCC 25922 assessed as reduction in bacterial survival rate at 25 ug/ml in presence of 10% mouse serum; type: functional, organism-based
# [9] = tested on: Escherichia coli; assay: Induction of outer membrane disintegration in Escherichia coli ATCC 25922 at 6.25 ug/ml by NPN uptake assay; type: functional, organism-based
# [10] = Binding affinity to Rd mutant containing Escherichia coli F583 lipid A assessed as equilibrium dissociation constant by bilayer interferometry
# [11] = tested on: Escherichia coli; assay: Induction of inner membrane disintegration in Escherichia coli ML35 ATCC 43827 at 1.6 to 6.3 ug/ml by ONPG hydrolysis assay; type: functional, organism-based
# [12] = tested on: Escherichia coli; assay: Antibacterial activity against Escherichia coli ATCC 25922 assessed as reduction in bacterial survival rate at 12.5 ug/ml in presence of >75 mM NaCl; type: functional, organism-based
# [13] = Binding affinity to Staphylococcus aureus lipoteichoic acid assessed as equilibrium dissociation constant by bilayer interferometry
# [14] = tested on: Escherichia coli; assay: Induction of inner membrane disintegration in Escherichia coli ML35 ATCC 43827 at 0.78 to 1.6 ug/ml by ONPG hydrolysis assay; type: functional, organism-based
# [15] = Induction of hemolysis in mouse erythrocytes at 12.5 and 25 ug/ml incubated at 37 degC for 15 mins; type: cell-based; conditions: erythrocyte, 0.25 h
Compound,LD90 [1] [µg/mL],LC50 [1] [µg/mL],LD90 [2] [µg/mL],LC50 [2] [µg/mL],Activity [3],Activity [4],Stability [5],hemolysis at 0.25 h [6] [%],Kd [7] [nM],Activity [8],Activity [9],Kd [10] [nM],Activity [11],Activity [12],Kd [13] [nM],Activity [14],Activity [15]
"CC[C@H](C)[C@@H]1NC(=O)[C@H](CCC(=O)O)NC(=O)[C@@H]2CSSC[C@@H]3NC(=O)[C@H](Cc4ccc(O)cc4)NC(=O)[C@@H](NC(=O)[C@@H](NC(=O)[C@H](C)N)[C@@H](C)O)CSSC[C@@H](C(=O)N[C@@H](CCCNC(=N)N)C(=O)O)NC(=O)[C@H](CSSC[C@H](NC(=O)[C@H](CCCNC(=N)N)NC(=O)CNC(=O)[C@H](CCCNC(=N)N)NC(=O)[C@H](CCCNC(=N)N)NC3=O)C(=O)N[C@@H](C)C(=O)N[C@@H]([C@@H](C)O)C(=O)N[C@@H](CCCNC(=N)N)C(=O)N[C@@H](CCC(=O)O)C(=O)N[C@@H](CO)C(=O)N[C@@H](CC(C)C)C(=O)N[C@@H](CO)C(=O)NCC(=O)N[C@@H](C(C)C)C(=O)N2)NC(=O)[C@H](CC(C)C)NC(=O)[C@H](CCCNC(=N)N)NC(=O)[C@H](Cc2ccc(O)cc2)NC(=O)[C@H](CC(C)C)NC(=O)[C@H](CCCNC(=N)N)NC(=O)CNC(=O)[C@H](CO)NC1=O (H-ATCYCRRGRCATRESLSGVCEISGRLYRLCCR-OH; disulfide 3-31, 5-20, 10-30)",2.8,1.3,5,1.4,–,–,–,–,–,–,–,–,–,–,–,–,–
"CC[C@H](C)[C@@H]1NC(=O)[C@H](CCCNC(=N)N)NC(=O)[C@@H]2CSSC[C@@H]3NC(=O)[C@H](Cc4ccc(O)cc4)NC(=O)[C@@H](NC(=O)[C@@H](NC(=O)[C@H](C)N)[C@@H](C)O)CSSC[C@@H](C(=O)N[C@@H](CCCNC(=N)N)C(=O)O)NC(=O)[C@H](CSSC[C@H](NC(=O)[C@H](CCCNC(=N)N)NC(=O)CNC(=O)[C@H](CCCNC(=N)N)NC(=O)[C@H](CCCNC(=N)N)NC3=O)C(=O)N[C@@H](C)C(=O)N[C@@H]([C@@H](C)O)C(=O)N[C@@H](CCCNC(=N)N)C(=O)N[C@@H](CCC(=O)O)C(=O)N[C@@H](CO)C(=O)N[C@@H](CC(C)C)C(=O)N[C@@H](CO)C(=O)NCC(=O)N[C@@H](C(C)C)C(=O)N2)NC(=O)[C@H](CC(C)C)NC(=O)[C@H](CCCNC(=N)N)NC(=O)[C@H](Cc2ccc(O)cc2)NC(=O)[C@H](CC(C)C)NC(=O)[C@H](CCCNC(=N)N)NC(=O)CNC(=O)[C@H](CO)NC1=O (H-ATCYCRRGRCATRESLSGVCRISGRLYRLCCR-OH; disulfide 3-31, 5-20, 10-30)",1.4,< 0.39,1.8,0.8,Active,Active,Stable,≤ 1,48,Active,–,–,–,–,–,–,–
"CC[C@H](C)[C@@H]1NC(=O)[C@H](CCC(=O)O)NC(=O)[C@@H]2CSSC[C@@H]3NC(=O)[C@H](Cc4ccc(O)cc4)NC(=O)[C@@H](NC(=O)[C@@H](NC(=O)[C@H](C)N)[C@@H](C)O)CSSC[C@@H](C(=O)N[C@@H](CCCNC(=N)N)C(=O)O)NC(=O)[C@H](CSSC[C@H](NC(=O)[C@H](CCCNC(=N)N)NC(=O)CNC(=O)[C@H]([C@@H](C)O)NC(=O)[C@H](CCCNC(=N)N)NC3=O)C(=O)N[C@@H](C)C(=O)N[C@@H]([C@@H](C)O)C(=O)N[C@@H](CCCNC(=N)N)C(=O)N[C@@H](CCC(=O)O)C(=O)N[C@@H](CO)C(=O)N[C@@H](CC(C)C)C(=O)N[C@@H](CO)C(=O)NCC(=O)N[C@@H](C(C)C)C(=O)N2)NC(=O)[C@H](CC(C)C)NC(=O)[C@H](CCCNC(=N)N)NC(=O)[C@H](Cc2ccc(O)cc2)NC(=O)[C@H](CC(C)C)NC(=O)[C@H](CCCNC(=N)N)NC(=O)CNC(=O)[C@H](CCCNC(=N)N)NC1=O (H-ATCYCRTGRCATRESLSGVCEIRGRLYRLCCR-OH; disulfide 3-31, 5-20, 10-30)",3,1.5,6,1.7,–,–,–,–,–,–,–,–,–,–,–,–,–
"CC[C@H](C)[C@@H]1NC(=O)[C@H](CCC(=O)O)NC(=O)[C@@H]2CSSC[C@@H]3NC(=O)[C@H](Cc4ccc(O)cc4)NC(=O)[C@@H](NC(=O)[C@@H](NC(=O)[C@H](C)N)[C@@H](C)O)CSSC[C@@H](C(=O)N[C@@H](CCCNC(=N)N)C(=O)O)NC(=O)[C@H](CSSC[C@H](NC(=O)[C@H](CCCNC(=N)N)NC(=O)CNC(=O)[C@H]([C@@H](C)O)NC(=O)[C@H](CCCNC(=N)N)NC3=O)C(=O)N[C@@H](C)C(=O)N[C@@H]([C@@H](C)O)C(=O)N[C@@H](CCCNC(=N)N)C(=O)N[C@@H](CCC(=O)O)C(=O)N[C@@H](CO)C(=O)N[C@@H](CC(C)C)C(=O)N[C@@H](CO)C(=O)NCC(=O)N[C@@H](C(C)C)C(=O)N2)NC(=O)[C@H](CC(C)C)NC(=O)[C@H](CCCNC(=N)N)NC(=O)[C@H](Cc2ccc(O)cc2)NC(=O)[C@H](CC(C)C)NC(=O)[C@H](CCCNC(=N)N)NC(=O)CNC(=O)[C@H](CO)NC1=O (H-ATCYCRTGRCATRESLSGVCEISGRLYRLCCR-OH; disulfide 3-31, 5-20, 10-30)",3.4,1.9,6.6,3.3,inactive,–,–,–,210,inactive,Active,120,Active,inactive,220,–,–
"CC[C@H](C)[C@@H]1NC(=O)[C@H](CCC(=O)O)NC(=O)[C@@H]2CSSC[C@@H]3NC(=O)[C@H](Cc4ccc(O)cc4)NC(=O)[C@@H](NC(=O)[C@@H](NC(=O)[C@H](C)N)[C@@H](C)O)CSSC[C@@H](C(=O)N[C@@H](CCCNC(=N)N)C(=O)O)NC(=O)[C@H](CSSC[C@H](NC(=O)[C@H](CCCNC(=N)N)NC(=O)CNC(=O)[C@H]([C@@H](C)O)NC(=O)[C@H](CCCNC(=N)N)NC3=O)C(=O)N[C@@H](C)C(=O)N[C@@H]([C@@H](C)O)C(=O)N[C@@H](CCCNC(=N)N)C(=O)N[C@@H](CCC(=O)O)C(=O)N[C@@H](CO)C(=O)N[C@@H](CC(C)C)C(=O)N[C@@H](CO)C(=O)NCC(=O)N[C@@H](C(C)C)C(=O)N2)NC(=O)[C@H](CC(C)C)NC(=O)[C@H](CCCNC(=N)N)NC(=O)[C@H](Cc2ccc(O)cc2)NC(=O)[C@H](CC(C)C)NC(=O)[C@H](CCCNC(=N)N)NC(=O)[C@H](CCCNC(=N)N)NC(=O)[C@H](CO)NC1=O (H-ATCYCRTGRCATRESLSGVCEISRRLYRLCCR-OH; disulfide 3-31, 5-20, 10-30)",3.1,1.5,5.8,1.6,–,–,–,–,–,–,–,–,–,–,–,–,–
"CC[C@H](C)[C@@H]1NC(=O)[C@H](CCCNC(=N)N)NC(=O)[C@@H]2CSSC[C@@H]3NC(=O)[C@H](Cc4ccc(O)cc4)NC(=O)[C@@H](NC(=O)[C@@H](NC(=O)[C@H](C)N)[C@@H](C)O)CSSC[C@@H](C(=O)N[C@@H](CCCNC(=N)N)C(=O)O)NC(=O)[C@H](CSSC[C@H](NC(=O)[C@H](CCCNC(=N)N)NC(=O)CNC(=O)[C@H]([C@@H](C)O)NC(=O)[C@H](CCCNC(=N)N)NC3=O)C(=O)N[C@@H](C)C(=O)N[C@@H]([C@@H](C)O)C(=O)N[C@@H](CCCNC(=N)N)C(=O)N[C@@H](CCC(=O)O)C(=O)N[C@@H](CO)C(=O)N[C@@H](CC(C)C)C(=O)N[C@@H](CO)C(=O)NCC(=O)N[C@@H](C(C)C)C(=O)N2)NC(=O)[C@H](CC(C)C)NC(=O)[C@H](CCCNC(=N)N)NC(=O)[C@H](Cc2ccc(O)cc2)NC(=O)[C@H](CC(C)C)NC(=O)[C@H](CCCNC(=N)N)NC(=O)CNC(=O)[C@H](CO)NC1=O (H-ATCYCRTGRCATRESLSGVCRISGRLYRLCCR-OH; disulfide 3-31, 5-20, 10-30)",2.2,0.6,3.1,1.3,–,–,–,–,–,–,Active,33,–,–,85,Active,–
CC[C@H](C)[C@H](NC(=O)CN)C(=O)NCC(=O)N[C@@H](C)C(=O)N[C@H](C(=O)N[C@@H](CC(C)C)C(=O)N[C@@H](CCCCN)C(=O)N[C@H](C(=O)N[C@@H](CC(C)C)C(=O)N[C@H](C(=O)N[C@H](C(=O)NCC(=O)N[C@@H](CC(C)C)C(=O)N1CCC[C@H]1C(=O)N[C@@H](C)C(=O)N[C@@H](CC(C)C)C(=O)N[C@H](C(=O)N[C@@H](CO)C(=O)N[C@@H](Cc1c[nH]c2ccccc12)C(=O)N[C@H](C(=O)N[C@@H](CCCCN)C(=O)N[C@@H](CCCNC(=N)N)C(=O)N[C@@H](CCCCN)C(=O)N[C@@H](CCCNC(=N)N)C(=O)N[C@@H](CCC(N)=O)C(=O)N[C@@H](CCC(N)=O)C(N)=O)[C@@H](C)CC)[C@@H](C)CC)[C@@H](C)O)[C@@H](C)O)C(C)C)C(C)C [MELITTIN],–,–,–,–,–,–,–,–,–,–,–,–,–,–,–,–,Toxic
